From patent US6686345B2, “DNA-cleaving antitumor agents” (Research Development Foundation, priority 1998, dated 2004)
Entries after “also recorded” stand apart in the source; their conditions may differ. One block for each compound: values may come before it.

Key:
A549 cancer cells = assay: In vitro cancer cell cytotoxicity of pyridinium salts, A549; format: cell-based; details: for IC50: Homo sapiens, A549 cells, growth inhibition
Excerpt: (§1) The 2-ethynyl-1-prop-2-ynyl-pyridinium triflate salt has less activity in the in vitro cytotoxicity assay, perhaps due to the instability of this compound in nucleophilic solvents. The IC50 (50% Inhibition Concentration) is defined as the test compound concentration where the increase from time 0 in the number or mass of treated cells is only 50% as much as the corresponding increase in the vehicle-control at the end of experiment.

MCF-7 cancer cells = assay: In vitro cancer cell cytotoxicity of pyridinium salts, MCF-7; format: cell-based; details: for IC50: Homo sapiens, MCF7, MCF-7 cells, growth inhibition
Excerpt: as §1

supercoiled plasmid DNA = assay: DNA cleavage of supercoiled plasmid DNA by aza-enediyne heterocycles (thiazolium and benzothiazolium salts); format: biochemical; details: for DNA Cleavage 100 μM: 100 μM compound; for DNA Cleavage 100 μM / DNA Cleavage 1 mM: 50 μM bp DNA, TRIS pH 8.0, 24 hrs at 37° C.; for DNA Cleavage 1 mM: 1 mM compound
Description: The DNA cleavage efficiency of aza-enediyne heterocycles is determined by incubating the azaenediynes with supercoiled plasmid DNA. The supercoiled DNA was diluted to 50 μM bp in 50 mM TRIS buffer at pH 8.0. […] DNA topoisomers were separated by electrophoresis (0.8% agarose, 1× TBE, 82V, 1 hr 10 min) and stained with ethidium bromide (0.25 μg/mL) and images were analyzed by phosphorimger.
(§2) The normalized percent cleavage of DNA is determined as: [formula]
DNA cleavage normalized for the small amount (10-25%) of nicked relaxed DNA in control samples (DMSO-only treated DNA) is reported in Table 6.

[1] = Stability of heterocyclic salts in methanol (CD3OD) monitored by NMR; details: solution in CD3OD monitored by NMR
Description: The stability of solutions of these salts in CD3OD can be monitored by NMR.

[2] = Thermal isomerization (aza-Bergman rearrangement) of C,N-dialkynylimine; format: physicochemical; details: slower than 5a to 7a
Excerpt: A general synthetic route to C,N-dialkynylimines (3-aza-enediynes) 5a,b is depicted in FIG. 1. These imines are isolated as air stable yellow oils after chromatography. When a benzene solution of 5a is heated under reflux overnight, nitrile 7a is produced in 88% yield (FIG. 2). The nitrile 7a is isolated as a single stereoisomer, which is assigned the (Z)-geometry by comparison with authentic (E)-7a. Authentic (E)-7a was synthesized by the palladium-catalyzed coupling of 1-propynyltributyltin and the (E)-enol triflate of 2-cyano-2-phenylacetophenone. Heating a solution of imine 5a in benzene containing a large excess of 1,4-cyclohexadiene (1,4-chd) as a hydrogen atom trap, or in neat 1,4-chd at 150° C. for two hours affords the nitrile 7a as the only isolable product. The imine 5b contains a pendent double bond that could serve as an intramolecular trap for the putative diradical intermediate 6 (FIG. 2). We find that heating a benzene solution of 5b containing a large excess of 1,4-chd affords only the nitrile 7b in nearly quantitative yield. In none of these reactions were any products (e.g. 8 or 10) which would arise from trapping of the 2,5-ddp intermediate 6 detected.
The ^t½ for the Bergman cyclization of the corresponding (Z)-1,6-diphenylhex-3-ene-1,5-diyne to o-terphenyl is about 1000-fold slower than the rearrangement of 5a to 7a.

[3] = tested on: supercoiled ΦX174 plasmid DNA; assay: DNA cleavage by 2-alkynyl pyridinium triflate salts; format: biochemical, ΦX174 Phage; details: for Normalized Percent Cleavage of ΦX174 Phage (RF-1) DNA: 24 hrs at 37° C., pH 8.0; for DNA cleavage (in words): pyridinium series
Description: as §2
The DNA cleavage efficiency of these azaenediyne heterocycles was determined by incubation with aqueous solutions of supercoiled ΦX174 plasmid DNA. The supercoiled DNA was diluted to 50 μM bp in 50 mM TRIS pH 8.0. The reaction mixtures containing compound and 13% v/v DMSO-d6 were incubated for 24 hrs at 37° C. DNA topoisomers were separated by agarose gel electrophoresis (1 X TBE, 90V, 1 hr), stained with ethidium bromide (0.25 μg/mL), and the images were analyzed on a fluorimager. DNA cleavage results are reported as normalized percent cleavage in Table 7 as for the thiazolium and benzothiazolium salts in Example 8.

[4] = tested on: A549 non-small cell lung cancer cells; assay: In vivo evaluation in SCID mice implanted with A549 cells
Supercoiled DNA = assay: DNA cleavage by heterocyclic variants (KeAZB series); format: biochemical
Description: The gel depicted in FIG. 3 represents the results of the DNA cleavage experiment with KeAZB002. Supercoiled DNA (50 uM in 50 mM TRIS phosphate buffer, pH 8) was incubated with 0 (lanes 1, 5), 1 (lanes 2, 6), 100 (lanes 3, 7), or 1000 (lane 4) uM of KeAZB002 for 24 hours at 20° C. Samples for lanes 5-8 were loaded onto the agarose gel, whereas samples for lanes 1-4 were heated at 70° C. for 90 sec. prior to loading onto the gel. After electrophoresis at 60 V for 2 hrs, the DNA products were visualized with ethidium bromide staining and UV transillumination.

[5] = Stability of KeAZB002 in aqueous solution; format: physicochemical
[6] = tested on: various cancer cell lines; assay: In vitro cytotoxicity of KeAZB002 on various cancer cell lines; format: cell-based; details: variety of cancer cell types, FIG. 16

SMILES: C#CC[n+]1ccccc1CCc1ccccc1 [drawing 133]
IC50 (A549 cancer cells): 11 µM | IC50 (MCF-7 cancer cells): 23 µM

SMILES: C#CC[n+]1ccsc1C#Cc1ccccc1 [drawing 121]
Normalized Cleavage (%) (supercoiled plasmid DNA; Concentration 25 μM): 37.31% | Normalized Cleavage (%) (supercoiled plasmid DNA; Concentration 50 μM): 56.84% | Normalized Cleavage (%) (supercoiled plasmid DNA; Concentration 100 μM): 67.29% | Normalized Cleavage (%) (supercoiled plasmid DNA; Concentration 250 μM): 92.79%

Stability in MeOH (Initial Decomposition) [1]: ˜30 min
SMILES: C#CC[n+]1c(C#Cc2ccccc2)sc2ccccc21
DNA Cleavage 100 μM (supercoiled plasmid DNA): 46% | DNA Cleavage 1 mM (supercoiled plasmid DNA): 100%

t½ for the Bergman cyclization relative to rearrangement of 5a to 7a [2]: about 1000 fold
SMILES: C(#Cc1ccccc1)/C=C\C#Cc1ccccc1 [(Z)-1,6-diphenylhex-3-ene-1,5-diyne]

SMILES: C#CC[n+]1ccccc1C#Cc1ccccc1 [drawing 129]
IC50 (A549 cancer cells): 3.3 µM | IC50 (MCF-7 cancer cells): 3.1 µM

SMILES: C#CC[n+]1ccccc1C#C [drawing 125, 1-prop-2-ynyl-2-ethynyl-pyridinium triflate]
Normalized Percent Cleavage of ΦX174 Phage (RF-1) DNA ([3]; 1 μM): 12% | Normalized Percent Cleavage of ΦX174 Phage (RF-1) DNA ([3]; 10 μM): 39% | Normalized Percent Cleavage of ΦX174 Phage (RF-1) DNA ([3]; 50 μM): 77% | Normalized Percent Cleavage of ΦX174 Phage (RF-1) DNA ([3]; 100 μM): 85% | growth inhibition of A549 cells (in words) (A549 cancer cells; A549): less activity | growth inhibition of MCF-7 cells (in words) (MCF-7 cancer cells; MCF-7): less activity

SMILES: C#CC[n+]1ccccc1C#Cc1ccccc1 [drawing 122, 1-prop-2-ynyl-2-phenylethynyl pyridinium triflate]
Normalized Percent Cleavage of ΦX174 Phage (RF-1) DNA ([3]; 1 μM): 0.4% | Normalized Percent Cleavage of ΦX174 Phage (RF-1) DNA ([3]; 10 μM): 17% | Normalized Percent Cleavage of ΦX174 Phage (RF-1) DNA ([3]; 50 μM): 83% | Normalized Percent Cleavage of ΦX174 Phage (RF-1) DNA ([3]; 100 μM): 87%

SMILES: C#CC[n+]1ccccc1C#Cc1ccc(C(F)(F)F)cc1 [drawing 131]
IC50 (A549 cancer cells): 9.8 µM | IC50 (MCF-7 cancer cells): 10 µM

SMILES: Cn1c(C#Cc2ccccc2)[n+](CC#Cc2ccccc2)c2ccccc21.F[B-](F)(F)F [KeAZB002, N-phenylpropargyl-N-methyl-2-phenylethynylbenzimidazolium tetrafluoroborate]
antitumor activity in vivo (in words) [4]: demonstrates antitumor activity in vivo; also recorded: modest antitumor activity | tumor weight ([4]; seventeen days, versus control): decreased consistently in comparison to control | DNA cleavage (in words) (Supercoiled DNA): cleaves DNA at micromolar concentrations; also recorded: cleaves the DNA, producing frank single strand breaks; also recorded: strongly temperature dependent | stability in basic aqueous solution ([5]; basic aqueous solution): undergoes a series of reactions | stability in water ([5]; water at neutral pH): stable indefinitely | in vitro cytotoxicity (in words) [6]: shows activity against several tumor cell lines in vitro; also recorded: cytotoxic to a variety of cancer cell types

SMILES: C#CC[n+]1c(C#C[Si](C(C)C)(C(C)C)C(C)C)sc2ccccc21
DNA Cleavage 1 mM (supercoiled plasmid DNA): 0%

Stability in MeOH (Initial Decomposition) [1]: >24 h
SMILES: C(#Cc1nc2ccccc2s1)c1ccccc1
DNA Cleavage 1 mM (supercoiled plasmid DNA): 5%

Stability in MeOH (Initial Decomposition) [1]: >24 h
SMILES: C#CC[n+]1c(-c2ccccc2)c(-c2ccccc2)n(C)c1C#Cc1ccccc1
DNA Cleavage 100 μM (supercoiled plasmid DNA): 1.4% | DNA Cleavage 1 mM (supercoiled plasmid DNA): 10%

SMILES: C#CC[n+]1ccccc1C#Cc1ccc(OC)cc1 [drawing 130]
IC50 (A549 cancer cells): 2.7 µM | IC50 (MCF-7 cancer cells): 8.7 µM

SMILES: C#CC[n+]1ccccc1C#Cc1ccccc1.O=S(=O)([O-])C(F)(F)F [KeAZB009, N-propargyl-2-phenylethynylpyridiniumium triflate]
DNA cleavage (in words) (Supercoiled DNA): more potent DNA cleavage than KeAZB002

SMILES: C#CC[n+]1ccccc1C#C[Si](C)(C)C [1-prop-2-ynyl-2[(trimethyl-silanyl)-ethynyl]-pyridinium triflate]
Normalized Percent Cleavage of ΦX174 Phage (RF-1) DNA ([3]; 1 μM): 9% | Normalized Percent Cleavage of ΦX174 Phage (RF-1) DNA ([3]; 10 μM): 34% | Normalized Percent Cleavage of ΦX174 Phage (RF-1) DNA ([3]; 50 μM): 73% | Normalized Percent Cleavage of ΦX174 Phage (RF-1) DNA ([3]; 100 μM): 89%

Stability in MeOH (Initial Decomposition) [1]: >24 h
SMILES: C#CC[n+]1cccnc1C#Cc1ccccc1
DNA Cleavage 100 μM (supercoiled plasmid DNA): 14.4% | DNA Cleavage 1 mM (supercoiled plasmid DNA): 43.3%

SMILES: C#CC[n+]1ccccc1C#C [drawing 132]
IC50 (A549 cancer cells): 21 µM | IC50 (MCF-7 cancer cells): 63 µM

SMILES: C#CC[n+]1ccccc1C#C[Si](C(C)C)(C(C)C)C(C)C [1-prop-2-ynyl-2[(triisopropyl-silanyl)-ethynyl]-pyridinium triflate]
Normalized Percent Cleavage of ΦX174 Phage (RF-1) DNA ([3]; 1 μM): 0% | Normalized Percent Cleavage of ΦX174 Phage (RF-1) DNA ([3]; 10 μM): 8.1% | Normalized Percent Cleavage of ΦX174 Phage (RF-1) DNA ([3]; 50 μM): 49% | Normalized Percent Cleavage of ΦX174 Phage (RF-1) DNA ([3]; 100 μM): 77% | DNA cleavage (in words) ([3]; ΦX174 DNA): cleaves DNA less efficiently than all of the other 2-alkynyl substituted analogs

Stability in MeOH (Initial Decomposition) [1]: 0.333 to 0.5 h
SMILES: C#CC[n+]1c(C#Cc2ccc(C)cc2)sc2ccccc21
DNA Cleavage 1 mM (supercoiled plasmid DNA): 100%

Stability in MeOH (Initial Decomposition) [1]: ˜24 hr
SMILES: C#CC[n+]1ccsc1C#Cc1ccccc1 [drawing 119]
DNA Cleavage 100 μM (supercoiled plasmid DNA): 76% | DNA Cleavage 1 mM (supercoiled plasmid DNA): 100%

Stability in MeOH (Initial Decomposition) [1]: >24 h
SMILES: C(#Cc1nccs1)c1ccccc1
DNA Cleavage 1 mM (supercoiled plasmid DNA): 1.5%

Stability in MeOH (Initial Decomposition) [1]: 0.167 to 0.25 h
SMILES: C[n+]1c(C#Cc2ccccc2)sc2ccccc21
DNA Cleavage 1 mM (supercoiled plasmid DNA): 96%

SMILES: C#CC[n+]1ccccc1C#Cc1ccc(C(F)(F)F)cc1 [drawing 124, 1-prop-2-ynyl-2[(4-trifluoromethylphenyl)-ethynyl]-pyridinium triflate]
Normalized Percent Cleavage of ΦX174 Phage (RF-1) DNA ([3]; 1 μM): 0.9% | Normalized Percent Cleavage of ΦX174 Phage (RF-1) DNA ([3]; 10 μM): 33% | Normalized Percent Cleavage of ΦX174 Phage (RF-1) DNA ([3]; 50 μM): 78% | Normalized Percent Cleavage of ΦX174 Phage (RF-1) DNA ([3]; 100 μM): 90%

SMILES: C[n+]1ccsc1C#Cc1ccccc1
DNA Cleavage 1 mM (supercoiled plasmid DNA): 27%

SMILES: C#CC[n+]1c(C#C[Si](C)(C)C)sc2ccccc21
DNA Cleavage 1 mM (supercoiled plasmid DNA): 100%

SMILES: C#CC[n+]1ccccc1CCc1ccccc1 [drawing 128, 1-prop-2-ynyl-2-phenethyl-pyridinium triflate]
Normalized Percent Cleavage of ΦX174 Phage (RF-1) DNA ([3]; 1 μM): 2% | Normalized Percent Cleavage of ΦX174 Phage (RF-1) DNA ([3]; 10 μM): 4% | Normalized Percent Cleavage of ΦX174 Phage (RF-1) DNA ([3]; 50 μM): 10% | Normalized Percent Cleavage of ΦX174 Phage (RF-1) DNA ([3]; 100 μM): 13% | DNA cleavage (in words) ([3]; ΦX174 DNA): does not cleave DNA to any appreciable extent

SMILES: C#CC[n+]1ccccc1C#Cc1ccc(OC)cc1 [drawing 123, 1-prop-2-ynyl-2[(4-methoxyphenyl)-ethynyl]-pyridinium triflate]
Normalized Percent Cleavage of ΦX174 Phage (RF-1) DNA ([3]; 1 μM): 7.5% | Normalized Percent Cleavage of ΦX174 Phage (RF-1) DNA ([3]; 10 μM): 71% | Normalized Percent Cleavage of ΦX174 Phage (RF-1) DNA ([3]; 50 μM): 97% | Normalized Percent Cleavage of ΦX174 Phage (RF-1) DNA ([3]; 100 μM): 100% | lowest concentration producing DNA cleavage ([3]; ΦX174 DNA): 1 µM | DNA cleavage (in words) ([3]; ΦX174 DNA): most potent DNA cleavage activity
